Reference: patent US20260325685A1, “Radiopharmaceutical Compositions Targeting Carbonic Anhydrase IX and Uses Thereof” (RayzeBio, Inc., priority 2023, published 2026)
pKd: −log10 of the molar value. Like-named read-outs stand apart in the source and are kept apart here.

Legend:
human CA-IX = molecular target: T1, human CA-IX (Homo sapiens, UniProt Q16790); assay: Surface Plasmon Resonance (SPR) binding kinetics to recombinant human CA-IX (Biacore 8K, single-cycle kinetics, 1:1 binding model)
T1 construct: purchased Acro CA9-H82E3
Procedure, shortened: (§1)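 Recombinant human CA-IX or CA-XII captured on streptavidin chips (1200-1800 RU) in PBS-P+, pH 7.4. Single-cycle kinetics over 9 analyte concentrations (100-0.39 nM) with 1% DMSO, 120 s association, 1200 s dissociation, 25° C. Reference- and DMSO-corrected curves fit to 1:1 model for on/off rates.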

human CA-XII = molecular target: T2, human CA-XII (Homo sapiens, UniProt O43570); assay: Surface Plasmon Resonance (SPR) binding kinetics to recombinant human CA-XII (Biacore 8K, single-cycle kinetics, 1:1 binding model)
T2 construct: purchased Creative BioMart CA12-261H
T2 sequence (O43570 25-354): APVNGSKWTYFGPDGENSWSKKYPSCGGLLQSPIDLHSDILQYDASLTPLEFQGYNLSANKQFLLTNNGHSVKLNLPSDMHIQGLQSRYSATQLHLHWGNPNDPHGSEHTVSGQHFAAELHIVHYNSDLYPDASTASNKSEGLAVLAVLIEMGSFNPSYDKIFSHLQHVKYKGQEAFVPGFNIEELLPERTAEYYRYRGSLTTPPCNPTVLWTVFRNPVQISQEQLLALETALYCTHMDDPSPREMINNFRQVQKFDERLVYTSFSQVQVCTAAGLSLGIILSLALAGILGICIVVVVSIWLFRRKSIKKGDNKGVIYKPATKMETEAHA
Procedure, shortened: as §1

[1] = Chelated Metal: Lu-175; SPR, 25° C., pH 7.4; read-out: CAIX KD
[2] = Chelated Metal: Lu-175, 25° C., pH 7.4, read-out: CAXII KD
[3] = Chelated Metal: None; SPR, 25° C., pH 7.4; read-out: CAIX KD
[4] = KD ratio CAXII/CAIX; Chelated Metal: None
[5] = Chelated Metal: None, 25° C., pH 7.4, read-out: CAXII KD
[6] = read-out: CAIX KD; Chelated Metal: Lu-175; SPR, 25° C., pH 7.4
[7] = read-out: CAXII KD, Chelated Metal: Lu-175, 25° C., pH 7.4

Structure (SMILES)	pKd (human CA-IX; [1])	pKd (human CA-XII; [2])	further results
NS(=O)(=O)c1nnc(NC(=O)C23CCC(c4cn(CCNC(=O)[C@@H]5CN(C(=O)CN6CCN(CC(=O)O)CCN(CC(=O)O)CCN(CC(=O)O)CC6)CCN5C(=O)CC[C@H](NC(=O)C[C@H](NC(=O)CCC5CC5)C(=O)O)C(=O)O)nn4)(CC2)CC3)s1.[Lu+3] [Compound 109.48]	> 9.00	> 9.00	
Cc1c(C(F)(F)F)n[nH]c1C(=O)N[C@@H](CC(=O)N[C@@H](CCC(=O)N1CCN(C(=O)CN2CCN(CC(=O)O)CCN(CC(=O)O)CCN(CC(=O)O)CC2)C[C@H]1C(=O)NCCn1cc(C23CCC(C(=O)Nc4nnc(S(N)(=O)=O)s4)(CC2)CC3)nn1)C(=O)O)C(=O)O.[Lu+3] [Compound 109.49]	> 9.00	> 9.00	
NS(=O)(=O)c1nnc(NC(=O)C23CCC(c4cn(CCNC(=O)[C@@H]5CN(C(=O)CN6CCN(CC(=O)O)CCN(CC(=O)O)CCN(CC(=O)O)CC6)CCN5C(=O)CC[C@H](NC(=O)C[C@H](NC(=O)c5n[nH]c6ccccc56)C(=O)O)C(=O)O)nn4)(CC2)CC3)s1.[Lu+3] [Compound 109.50]	> 9.00	> 9.00	
NS(=O)(=O)c1nnc(NC(=O)C23CCC(c4cn(CCNC(=O)[C@@H]5CN(C(=O)CN6CCN(CC(=O)O)CCN(CC(=O)O)CCN(CC(=O)O)CC6)CCN5C(=O)CC[C@H](NC(=O)C[C@H](NC(=O)C5CC6(CCC6)C5)C(=O)O)C(=O)O)nn4)(CC2)CC3)s1.[Lu+3] [Compound 109.51]	> 9.00	> 9.00	
NS(=O)(=O)c1nnc(NC(=O)C23CCC(c4cn(CCNC(=O)[C@@H]5CN(C(=O)CN6CCN(CC(=O)O)CCN(CC(=O)O)CCN(CC(=O)O)CC6)CCN5C(=O)CC[C@H](NC(=O)C[C@H](NC(=O)CCC(F)(F)F)C(=O)O)C(=O)O)nn4)(CC2)CC3)s1.[Lu+3] [Compound 109.53]	> 9.00	> 9.00	
NS(=O)(=O)c1nnc(NC(=O)C23CCC(c4cn(CCNC(=O)[C@@H]5CN(C(=O)CN6CCN(CC(=O)O)CCN(CC(=O)O)CCN(CC(=O)O)CC6)CCN5C(=O)CC[C@H](NC(=O)C[C@H](NC(=O)c5ccc(C6CC6)cc5)C(=O)O)C(=O)O)nn4)(CC2)CC3)s1.[Lu+3] [Compound 109.54]	> 9.00	> 9.00	
NS(=O)(=O)c1nnc(NC(=O)C23CCC(c4cn(CCNC(=O)[C@@H]5CN(C(=O)CN6CCN(CC(=O)O)CCN(CC(=O)O)CCN(CC(=O)O)CC6)CCN5C(=O)CC[C@H](NC(=O)C[C@H](NC(=O)c5ccc(C6CCCCC6)cc5)C(=O)O)C(=O)O)nn4)(CC2)CC3)s1.[Lu+3] [Compound 109.55]	> 9.00	> 9.00	
NS(=O)(=O)c1nnc(NC(=O)C23CCC(c4cn(CCNC(=O)[C@@H]5CN(C(=O)CN6CCN(CC(=O)O)CCN(CC(=O)O)CCN(CC(=O)O)CC6)CCN5C(=O)CC[C@H](NC(=O)C[C@H](NC(=O)c5ccc(C6CC6)nc5)C(=O)O)C(=O)O)nn4)(CC2)CC3)s1.[Lu+3] [Compound 109.56]	> 9.00	8.60 to 9.00	
NS(=O)(=O)c1nnc(NC(=O)C23CCC(c4cn(CCNC(=O)[C@@H]5CN(C(=O)CN6CCN(CC(=O)O)CCN(CC(=O)O)CCN(CC(=O)O)CC6)CCN5C(=O)CC[C@H](NC(=O)C[C@H](NC(=O)CCC56CCC(CC5)C6)C(=O)O)C(=O)O)nn4)(CC2)CC3)s1.[Lu+3] [Compound 109.57]	> 9.00	> 9.00	
NS(=O)(=O)c1nnc(NC(=O)C23CCC(c4cn(CCNC(=O)[C@@H]5CN(C(=O)CN6CCN(CC(=O)O)CCN(CC(=O)O)CCN(CC(=O)O)CC6)CCN5C(=O)CC[C@H](NC(=O)C[C@H](NC(=O)c5ccc(S(F)(F)(F)(F)F)cc5)C(=O)O)C(=O)O)nn4)(CC2)CC3)s1.[Lu+3] [Compound 109.58]	> 9.00	> 9.00	
NS(=O)(=O)c1nnc(NC(=O)C23CCC(c4cn(CCNC(=O)[C@@H]5CN(C(=O)CN6CCN(CC(=O)O)CCN(CC(=O)O)CCN(CC(=O)O)CC6)CCN5C(=O)CC[C@H](NC(=O)C[C@H](NC(=O)c5coc(C(F)(F)F)n5)C(=O)O)C(=O)O)nn4)(CC2)CC3)s1.[Lu+3] [Compound 109.59]	> 9.00	> 9.00	
N[C@@H](CC(=O)N[C@@H](CCC(=O)N1CCN(C(=O)CN2CCN(CC(=O)O)CCN(CC(=O)O)CCN(CC(=O)O)CC2)C[C@H]1C(=O)NCCn1cc(C23CCC(C(=O)Nc4nnc(S(N)(=O)=O)s4)(CC2)CC3)nn1)C(=O)O)C(=O)O.[Lu+3] [Compound 109.60]	> 9.00	8.60 to 9.00	
NS(=O)(=O)c1nnc(NC(=O)C23CC(c4cn(CCNC(=O)[C@@H]5CN(C(=O)CN6CCN(CC(=O)O)CCN(CC(=O)O)CCN(CC(=O)O)CC6)CCN5C(=O)C[C@H](NC(=O)C[C@H](NC(=O)C5CC6(C5)CC(F)(F)C6)C(=O)O)C(=O)O)nn4)(C2)C3)s1.[Lu+3] [Compound 109.61]	8.60 to 9.00	8.00 to 8.60	
CC(CCCC(=O)N[C@@H](CC(=O)N[C@@H](CC(=O)N1CCN(C(=O)CN2CCN(CC(=O)O)CCN(CC(=O)O)CCN(CC(=O)O)CC2)C[C@H]1C(=O)NCCn1cc(C23CC(C(=O)Nc4nnc(S(N)(=O)=O)s4)(C2)C3)nn1)C(=O)O)C(=O)O)(c1ccc(O)cc1)c1ccc(O)cc1 [Compound 109.62]			pKd (human CA-IX; [3]): > 9.00; Ratio (CAXII/CAIX) (human CA-IX; [4]): *** (10 < *** ≤ 50); pKd (human CA-XII; [5]): < 8.00
NS(=O)(=O)c1nnc(NC(=O)C23CC(c4cn(CCNC(=O)[C@@H]5CN(C(=O)CN6CCN(CC(=O)O)CCN(CC(=O)O)CCN(CC(=O)O)CC6)CCN5C(=O)C[C@H](NC(=O)C[C@H](NC(=O)Cc5ccc(C6CC6)cc5)C(=O)O)C(=O)O)nn4)(C2)C3)s1 [Compound 109.63]			pKd (human CA-IX; [3]): > 9.00; Ratio (CAXII/CAIX) (human CA-IX; [4]): *** (10 < *** ≤ 50); pKd (human CA-XII; [5]): 8.00 to 8.60
NS(=O)(=O)c1nnc(NC(=O)C23CC(c4cn(CCNC(=O)[C@@H]5CN(C(=O)CN6CCN(CC(=O)O)CCN(CC(=O)O)CCN(CC(=O)O)CC6)CCN5C(=O)C[C@H](NC(=O)C[C@H](NC(=O)c5cccc(C6CC6)c5)C(=O)O)C(=O)O)nn4)(C2)C3)s1.[Lu+3] [Compound 109]			pKd (human CA-IX; [6]): > 9.00; pKd (human CA-XII; [7]): 8.00 to 8.60
NS(=O)(=O)c1nnc(NC(=O)C23CCC(c4cn(CCNC(=O)[C@@H]5CN(C(=O)CN6CCN(CC(=O)O)CCN(CC(=O)O)CCN(CC(=O)O)CC6)CCN5C(=O)CC[C@H](NC(=O)C[C@H](NCc5ccccc5)C(=O)O)C(=O)O)nn4)(CC2)CC3)s1.[Lu+3] [Compound 110]			pKd (human CA-IX; [6]): > 9.00; pKd (human CA-XII; [7]): > 9.00
CC(CCNC(=O)c1cnc(N[C@@H](CC(=O)N2CCN(C(=O)CN3CCN(CC(=O)O)CCN(CC(=O)O)CCN(CC(=O)O)CC3)C[C@@H]2C(=O)NCCn2cc(C34CC(C(=O)Nc5nnc(S(N)(=O)=O)s5)(C3)C4)nn2)C(=O)O)nc1)(c1ccc(O)cc1)c1ccc(O)cc1.[Lu+3] [Compound 111.1]	8.60 to 9.00	< 8.00	
NS(=O)(=O)c1nnc(NC(=O)C23CC(c4cn(CCNC(=O)[C@@H]5CN(C(=O)CN6CCN(CC(=O)O)CCN(CC(=O)O)CCN(CC(=O)O)CC6)CCN5C(=O)C[C@H](Nc5ncc(C(=O)NCc6ccc(C7CC7)cn6)cn5)C(=O)O)nn4)(C2)C3)s1.[Lu+3] [Compound 111.2]	8.00 to 8.60	< 8.00	
NS(=O)(=O)c1nnc(NC(=O)C23CC(c4cn(CCNC(=O)[C@@H]5CN(C(=O)CN6CCN(CC(=O)O)CCN(CC(=O)O)CCN(CC(=O)O)CC6)CCN5C(=O)C[C@H](Nc5ncc(C(=O)NCc6ccc(C7CC7)cc6)cn5)C(=O)O)nn4)(C2)C3)s1.[Lu+3] [Compound 111.3]	8.60 to 9.00	< 8.00	
NS(=O)(=O)c1nnc(NC(=O)C23CC(c4cn(CCNC(=O)[C@@H]5CN(C(=O)CN6CCN(CC(=O)O)CCN(CC(=O)O)CCN(CC(=O)O)CC6)CCN5C(=O)C[C@H](Nc5ncc(C(=O)N6CCC(c7ccc(O)cc7)(c7ccc(O)cc7)CC6)cn5)C(=O)O)nn4)(C2)C3)s1.[Lu+3] [Compound 111.4]	8.00 to 8.60	< 8.00	
NS(=O)(=O)c1nnc(NC(=O)C23CC(c4cn(CCNC(=O)[C@@H]5CN(C(=O)CN6CCN(CC(=O)O)CCN(CC(=O)O)CCN(CC(=O)O)CC6)CCN5C(=O)C[C@H](Nc5ncc(C(=O)NCc6coc(C(F)(F)F)n6)cn5)C(=O)O)nn4)(C2)C3)s1.[Lu+3] [Compound 111.5]	8.00 to 8.60	< 8.00	
NS(=O)(=O)c1nnc(NC(=O)C23CC(c4cn(CCNC(=O)[C@@H]5CN(C(=O)CN6CCN(CC(=O)O)CCN(CC(=O)O)CCN(CC(=O)O)CC6)CCN5C(=O)C[C@H](Nc5ncc(C(=O)NCc6ccc(C(F)F)cc6)cn5)C(=O)O)nn4)(C2)C3)s1.[Lu+3] [Compound 111.6]	8.00 to 8.60	< 8.00	
NS(=O)(=O)c1nnc(NC(=O)C23CC(c4cn(CCNC(=O)[C@@H]5CN(C(=O)CN6CCN(CC(=O)O)CCN(CC(=O)O)CCN(CC(=O)O)CC6)CCN5C(=O)C[C@H](Nc5ncc(C(=O)NCCc6ccc(C(F)(F)F)cc6)cn5)C(=O)O)nn4)(C2)C3)s1.[Lu+3] [Compound 111.7]	8.00 to 8.60	< 8.00	
NS(=O)(=O)c1nnc(NC(=O)C23CC(c4cn(CCNC(=O)[C@@H]5CN(C(=O)CN6CCN(CC(=O)O)CCN(CC(=O)O)CCN(CC(=O)O)CC6)CCN5C(=O)C[C@H](Nc5ncc(C(=O)NCCc6ccc(F)c(F)c6)cn5)C(=O)O)nn4)(C2)C3)s1.[Lu+3] [Compound 111.8]	8.00 to 8.60	< 8.00	
NS(=O)(=O)c1nnc(NC(=O)C23CC(c4cn(CCNC(=O)[C@@H]5CN(C(=O)CN6CCN(CC(=O)O)CCN(CC(=O)O)CCN(CC(=O)O)CC6)CCN5C(=O)C[C@H](Nc5ncc(C(=O)NCC6CC7(CCC7)C6)cn5)C(=O)O)nn4)(C2)C3)s1.[Lu+3] [Compound 111.9]	8.60 to 9.00	< 8.00	
